Experimental data: PubChem BioAssay AID248 (DTP/NCI, 2004)
Several values for one entry are separate records, joined by “and”; a condition that tells them apart may be missing. Equal entries are not always repeated. Inconclusive results and toxic doses are left out. Rule as the data show it: active = T/C of 150% or more; inactive = T/C below 125%.

Tested on: L1210 leukemia ip in BDF1 mice, survival T/C
Assay: NCI In Vivo Anticancer Drug Screen. Data for tumor model L1210 Leukemia (intraperitoneal) in B6D2F1 (BDF1) mice
Conditions: endpoint: mean survival time, higher = longer survival
Method in brief: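 Read-out is survival time, reported as the treated-group measurement over the vehicle-control measurement.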

[1] = dose: 20.0 mg/kg/injection, schedule: Q01DX009 (ip), vehicle: Klucel (hydroxypropylcellulose) (HPC)
[2] = dose: 100.0 mg/kg/injection, schedule: Q01DX009 (ip), vehicle: saline with Tween-80
[3] = dose: 200.0 mg/kg/injection, schedule: Q01DX009 (ip), vehicle: saline with Tween-80
[4] = dose: 400.0 mg/kg/injection, schedule: Q01DX009 (ip), vehicle: saline with Tween-80
[5] = dose: 100.0 mg/kg/injection, schedule: Q04DX003 (ip), vehicle: saline with Tween-80
[6] = dose: 200.0 mg/kg/injection, schedule: Q04DX003 (ip), vehicle: saline with Tween-80
[7] = dose: 400.0 mg/kg/injection, schedule: Q04DX003 (ip), vehicle: saline with Tween-80
[8] = dose: 25.0 mg/kg/injection, schedule: Q01DX009 (ip), vehicle: Klucel (hydroxypropylcellulose) (HPC)
[9] = dose: 100.0 mg/kg/injection, schedule: Q01DX009 (ip), vehicle: Klucel (hydroxypropylcellulose) (HPC)
[10] = dose: 100.0 mg/kg/injection, schedule: Q04DX003 (ip), vehicle: Klucel (hydroxypropylcellulose) (HPC)
[11] = dose: 200.0 mg/kg/injection, schedule: Q04DX003 (ip), vehicle: Klucel (hydroxypropylcellulose) (HPC)
[12] = dose: 100.0 mg/kg/injection, schedule: Q01DX001 (ip), vehicle: saline
[13] = dose: 200.0 mg/kg/injection, schedule: Q01DX001 (ip), vehicle: saline
[14] = dose: 400.0 mg/kg/injection, schedule: Q01DX001 (ip), vehicle: saline
[15] = dose: 100.0 mg/kg/injection, schedule: Q04DX002 (ip), vehicle: Klucel (hydroxypropylcellulose) (HPC)
[16] = dose: 200.0 mg/kg/injection, schedule: Q04DX002 (ip), vehicle: Klucel (hydroxypropylcellulose) (HPC)
[17] = dose: 100.0 mg/kg/injection, schedule: Q04DX003 (ip), vehicle: saline
[18] = dose: 200.0 mg/kg/injection, schedule: Q04DX003 (ip), vehicle: saline
[19] = dose: 50.0 mg/kg/injection, schedule: Q01DX009 (ip), vehicle: saline
[20] = dose: 100.0 mg/kg/injection, schedule: Q01DX009 (ip), vehicle: saline

Measured: T/C

CC(C)(C)c1ccc(C(=O)O)cc1.[Cu+2]
inactive: dose: 2.5 mg/kg/injection, schedule: Q01DX009 (ip), vehicle: Klucel (hydroxypropylcellulose) (HPC) 109 % of control | dose: 5.0 mg/kg/injection, schedule: Q01DX009 (ip), vehicle: Klucel (hydroxypropylcellulose) (HPC) 101 % of control | dose: 10.0 mg/kg/injection, schedule: Q01DX009 (ip), vehicle: Klucel (hydroxypropylcellulose) (HPC) 106 % of control | [1] 101 % of control

O=c1[nH][nH]c(=O)n1-c1ccccc1
inactive: dose: 25.0 mg/kg/injection, schedule: Q01DX009 (ip), vehicle: saline with Tween-80 96 % of control | dose: 50.0 mg/kg/injection, schedule: Q01DX009 (ip), vehicle: saline with Tween-80 94 % of control | [2] 100 % of control | dose: 100.0 mg/kg/injection, schedule: Q04DX002 (ip), vehicle: saline with Tween-80 100 % of control | dose: 177.0 mg/kg/injection, schedule: Q04DX002 (ip), vehicle: saline with Tween-80 95 % of control | [3] 93 % of control | dose: 200.0 mg/kg/injection, schedule: Q04DX002 (ip), vehicle: saline with Tween-80 103 % of control | dose: 266.0 mg/kg/injection, schedule: Q04DX002 (ip), vehicle: saline with Tween-80 98 % of control | [4] 93 % of control | dose: 600.0 mg/kg/injection, schedule: Q04DX002 (ip), vehicle: saline with Tween-80 95 % of control

O=S(=O)(c1ccccc1)C(Br)Br
inactive: dose: 50.0 mg/kg/injection, schedule: Q04DX003 (ip), vehicle: saline with Tween-80 101 % of control | [5] 103 % of control | [6] 101 % of control

Cc1ccc(C)c(NC(=O)NCc2ccc(Cl)cc2)c1
inactive: [2] 87 % of control | [5] 93 % of control | [3] 89 % of control | [4] 93 % of control | [7] 100 % of control

CCCCNC(=O)Nc1cc(Cl)ccc1C
inactive: dose: 3.12 mg/kg/injection, schedule: Q01DX009 (ip), vehicle: Klucel (hydroxypropylcellulose) (HPC) 97 % of control | dose: 6.25 mg/kg/injection, schedule: Q01DX009 (ip), vehicle: Klucel (hydroxypropylcellulose) (HPC) 92 % of control | dose: 12.5 mg/kg/injection, schedule: Q01DX009 (ip), vehicle: Klucel (hydroxypropylcellulose) (HPC) 101 % of control and 90 % of control | [8] 89 % of control | [9] 94 % of control and 86 % of control | [10] 95 % of control | [11] 90 % of control | dose: 400.0 mg/kg/injection, schedule: Q04DX003 (ip), vehicle: Klucel (hydroxypropylcellulose) (HPC) 90 % of control

O=[N+]([O-])c1cc([N+](=O)[O-])c2ccc(Cl)nc2c1O
inactive: [12] 98 % of control | [13] 98 % of control | [14] 96 % of control

CC1(C)C(=O)C(C)(C)C1=Nc1ccccc1
inactive: [2] 95 % of control | [5] 108 % of control | [3] 94 % of control | [6] 106 % of control | [4] 97 % of control | [7] 106 % of control

Cc1nnc2nc3c(nn12)c1ccccc1n3C
inactive: dose: 6.25 mg/kg/injection, schedule: Q04DX002 (ip), vehicle: saline 100 % of control | dose: 12.5 mg/kg/injection, schedule: Q04DX002 (ip), vehicle: saline 103 % of control | dose: 25.0 mg/kg/injection, schedule: Q04DX002 (ip), vehicle: saline 96 % of control

C(=N\N=C\c1ccccc1)/c1ccccc1
inactive: [2] 97 % of control | [15] 98 % of control | [3] 100 % of control | [16] 91 % of control | [4] 100 % of control | dose: 400.0 mg/kg/injection, schedule: Q04DX002 (ip), vehicle: Klucel (hydroxypropylcellulose) (HPC) 102 % of control

N#C[CH2][Sn]([I])([c]1ccccc1)[c]1ccccc1
inactive: dose: 12.5 mg/kg/injection, schedule: Q04DX002 (ip), vehicle: saline with Tween-80 100 % of control | dose: 25.0 mg/kg/injection, schedule: Q04DX002 (ip), vehicle: saline with Tween-80 107 % of control | dose: 50.0 mg/kg/injection, schedule: Q04DX002 (ip), vehicle: saline with Tween-80 91 % of control

CC1CC(C)(C)N/C(=C/C(=O)N2Cc3cc4ccccc4nc3C2)O1 (stereo not given)
inactive: dose: 100.0 mg/kg/injection, schedule: Q01DX001 (ip), vehicle: Klucel (hydroxypropylcellulose) (HPC) 86 % of control | dose: 400.0 mg/kg/injection, schedule: Q01DX001 (ip), vehicle: Klucel (hydroxypropylcellulose) (HPC) 88 % of control

Cc1cccc(N2CCN(CC(O)COc3cccc4ccccc34)CC2)c1 (stereo not given)
inactive: [12] 95 % of control | [13] 98 % of control | [14] 95 % of control

CC(N)c1ccccc1 (stereo not given)
inactive: dose: 100.0 mg/kg/injection, schedule: Q01DX001 (ip), vehicle: saline with Tween-80 95 % of control | dose: 200.0 mg/kg/injection, schedule: Q01DX001 (ip), vehicle: saline with Tween-80 90 % of control

Cn1nc(N)c2ncc(-c3ccccc3)nc21
inactive: [9] 92 % of control | [17] 103 % of control | dose: 200.0 mg/kg/injection, schedule: Q01DX009 (ip), vehicle: Klucel (hydroxypropylcellulose) (HPC) 95 % of control | [18] 107 % of control | dose: 400.0 mg/kg/injection, schedule: Q01DX009 (ip), vehicle: Klucel (hydroxypropylcellulose) (HPC) 98 % of control | dose: 400.0 mg/kg/injection, schedule: Q04DX003 (ip), vehicle: saline 98 % of control

COc1ccc(OCC(=O)O)c(C=O)c1
inactive: [2] 95 % of control | [5] 115 % of control | [3] 93 % of control | [6] 96 % of control | [4] 91 % of control | [7] 106 % of control

O=C(O)c1ccccc1-c1ccccc1C(=O)Nc1ccc2c(c1)C(=O)c1ccccc1-2
inactive: [5] 104 % of control | [6] 101 % of control | [7] 98 % of control

NN1CCCC1
inactive: [19] 98 % of control | [20] 96 % of control | [17] 99 % of control | [18] 96 % of control

OCCC[P+](c1ccccc1)(c1ccccc1)c1ccccc1
inactive: [8] 96 % of control | dose: 50.0 mg/kg/injection, schedule: Q01DX009 (ip), vehicle: Klucel (hydroxypropylcellulose) (HPC) 100 % of control | [10] 102 % of control

O=C1OC(=O)C2C3c4ccccc4C(c4ccccc43)C12 (stereo not given)
inactive: dose: 25.0 mg/kg/injection, schedule: Q01DX009 (ip), vehicle: saline 103 % of control | [19] 98 % of control | dose: 50.0 mg/kg/injection, schedule: Q04DX003 (ip), vehicle: saline 96 % of control | [12] 98 % of control | [20] 114 % of control | [10] 103 % of control | [17] 98 % of control | [13] 88 % of control | [11] 90 % of control

Cc1ccc(S(=O)(=O)OCC2C3C=CC(c4ccccc43)C2COS(=O)(=O)c2ccc(C)cc2)cc1 (stereo not given)
inactive: dose: 75.0 mg/kg/injection, schedule: Q01DX009 (ip), vehicle: saline with Tween-80 96 % of control | dose: 150.0 mg/kg/injection, schedule: Q01DX009 (ip), vehicle: saline with Tween-80 91 % of control | dose: 300.0 mg/kg/injection, schedule: Q01DX009 (ip), vehicle: saline with Tween-80 90 % of control

O=S(=O)(O)c1ccc(CCCCCCCCl)cc1
inactive: [15] 100 % of control | [16] 90 % of control

CC(=O)Nc1ccc(OC(C)=O)cc1[N+](=O)[O-]
inactive: [12] 105 % of control | [13] 102 % of control | [14] 102 % of control

CN(C)c1ccc(-c2cc(C(=O)O)c3cc(I)ccc3n2)c(Cl)c1
inactive: dose: 75.0 mg/kg/injection, schedule: Q01DX001 (ip), vehicle: saline 88 % of control | dose: 150.0 mg/kg/injection, schedule: Q01DX001 (ip), vehicle: saline 86 % of control | dose: 300.0 mg/kg/injection, schedule: Q01DX001 (ip), vehicle: saline 91 % of control

CN(C)C(=O)c1ccc(NCc2cnc3nc(N)nc(N)c3n2)cc1
inactive: [1] 97 % of control | dose: 40.0 mg/kg/injection, schedule: Q01DX009 (ip), vehicle: Klucel (hydroxypropylcellulose) (HPC) 96 % of control | dose: 80.0 mg/kg/injection, schedule: Q01DX009 (ip), vehicle: Klucel (hydroxypropylcellulose) (HPC) 97 % of control

CC(=O)NC(CCSCc1c2ccccc2c(C)c2c1ccc1ccccc12)C(=O)O (stereo not given)
inactive: [3] 92 % of control | [4] 90 % of control
